Data on one molecule can be found in article PMC3828927, “Heterotropic Effect of β-lactam Antibiotics on Antioxidant Property of Haptoglobin (2-2)-Hemoglobin Complex” (Iranian Journal of Pharmaceutical Research : IJPR, 2011).

The target of this assay is T1, Hp (2-2)-Hb complex (Homo sapiens, UniProt P68871+P69905).
T1 construct: gene HBA1; with Haptoglobin
The assay can be described thus: guaiacol peroxidase assay, A470, clearance plot. To be noted: activator (heterotropic); binding site not shown; varied H2O2, 0.03 M guaiacol, 64 nM complex, 50 mM phosphate pH 7.5, 37 C. The format is biochemical.

T1 sequence (P69905 2-142): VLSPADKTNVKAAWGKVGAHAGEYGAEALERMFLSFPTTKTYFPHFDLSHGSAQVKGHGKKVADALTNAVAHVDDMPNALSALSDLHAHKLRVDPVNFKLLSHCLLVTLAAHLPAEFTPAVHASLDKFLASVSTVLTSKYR
T1 sequence (P68871 2-147): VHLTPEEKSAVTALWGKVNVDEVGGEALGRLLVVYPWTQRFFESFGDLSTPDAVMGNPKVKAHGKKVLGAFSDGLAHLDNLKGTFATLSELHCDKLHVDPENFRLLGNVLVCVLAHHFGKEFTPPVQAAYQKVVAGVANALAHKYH
T1 sequence (P00738 19-160 partner): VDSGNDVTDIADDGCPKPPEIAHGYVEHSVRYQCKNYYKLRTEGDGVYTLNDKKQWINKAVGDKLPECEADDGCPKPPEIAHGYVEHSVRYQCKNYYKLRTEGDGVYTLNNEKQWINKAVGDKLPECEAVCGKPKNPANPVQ
T1 sequence (P00738 162-406 partner): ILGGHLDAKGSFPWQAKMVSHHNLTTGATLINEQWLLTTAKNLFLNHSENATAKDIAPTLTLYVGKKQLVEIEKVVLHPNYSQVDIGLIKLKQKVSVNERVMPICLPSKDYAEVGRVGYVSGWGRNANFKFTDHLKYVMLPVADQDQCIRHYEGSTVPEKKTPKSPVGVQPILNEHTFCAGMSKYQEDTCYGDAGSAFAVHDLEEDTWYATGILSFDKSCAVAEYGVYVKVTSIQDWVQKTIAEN

Turning to `CC1(C)S[C@@H]2[C@H](NC(=O)[C@H](N)c3ccccc3)C(=O)N2[C@H]1C(=O)O` [ampicillin], the “% increase in peroxidase activity (CLmax) at 14 μg/mL” value is ~ 16%.
